From ChEMBL document CHEMBL1201862, “PubChem BioAssay data set” (2004)
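Method: 48-hour compound exposure of cells in 96-well plates, five concentrations, linear interpolation of endpoints. Here, GI50 denotes the concentration required for 50% inhibition of growth.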 The source made the active and inactive calls. Cut-off read from the data, not from the text of the source: active = GI50 up to about 1.1 µM and inactive = higher.

Legend:
Experiment in all cases: NCI-60 cell line screen, 48 h
786-0 = test system: 786-0
A498 = test system: A498
A549 = test system: A549
ACHN = test system: ACHN
BT-549 = test system: BT-549
CAKI-1 = test system: CAKI-1
CCRF-CEM = test system: CCRF-CEM
COLO 205 = test system: COLO 205
DU-145 = test system: DU-145
EKVX = test system: EKVX
HCC 2998 = test system: HCC 2998
HCT-116 = test system: HCT-116
HCT-15 = test system: HCT-15
HL-60 = test system: HL-60
HOP-62 = test system: HOP-62
HOP-92 = test system: HOP-92
Hs-578T = test system: Hs-578T
IGROV-1 = test system: IGROV-1
K562 = test system: K562
KM12 = test system: KM12
M14 = test system: M14
MCF7 = test system: MCF7
MDA-MB-231 = test system: MDA-MB-231
MDA-MB-435 = test system: MDA-MB-435
MDA-N = test system: MDA-N
MOLT-4 = test system: MOLT-4
Malme-3M = test system: Malme-3M
NCI-H226 = test system: NCI-H226
NCI-H23 = test system: NCI-H23
NCI-H460 = test system: NCI-H460
NCI-H522 = test system: NCI-H522
NCI/ADR-RES = test system: NCI/ADR-RES
OVCAR-3 = test system: OVCAR-3
OVCAR-4 = test system: OVCAR-4
OVCAR-5 = test system: OVCAR-5
OVCAR-8 = test system: OVCAR-8
PC-3 = test system: PC-3
RPMI-8226 = test system: RPMI-8226
RXF 393 = test system: RXF 393
SF-268 = test system: SF-268
SF-295 = test system: SF-295
SF-539 = test system: SF-539
SK-MEL-28 = test system: SK-MEL-28
SK-MEL-2 = test system: SK-MEL-2
SK-MEL-5 = test system: SK-MEL-5
SK-OV-3 = test system: SK-OV-3
SN12C = test system: SN12C
SNB-19 = test system: SNB-19
SNB-75 = test system: SNB-75
SR = test system: SR
SW-620 = test system: SW-620
T47D = test system: T47D
TK-10 = test system: TK-10
U-251 = test system: U-251
UACC-257 = test system: UACC-257
UACC-62 = test system: UACC-62
UO-31 = test system: UO-31
HT-29 = test system: HT-29
LOX IMVI = test system: LOX IMVI

Q: `O=S(=O)(O)c1ccc2c(/N=N/c3ccccc3)c(O)c(S(=O)(=O)O)cc2c1` was tested. Which GI50 (786-0) did it give?
A: > 100 µM (inactive)

Q: What about the GI50 (A498) of the same compound?
A: > 100 µM (inactive)

Q: What about the GI50 (A549) of the same compound?
A: > 100 µM (inactive)

Q: And the GI50 (ACHN)?
A: > 100 µM (inactive)

Q: What about the GI50 (BT-549) of the same compound?
A: > 100 µM (inactive)

Q: And the GI50 (CAKI-1)?
A: > 100 µM (inactive)

Q: What about the GI50 (CCRF-CEM) of the same compound?
A: > 100 µM (inactive)

Q: And the GI50 (COLO 205)?
A: > 100 µM (inactive)

Q: And the GI50 (DU-145)?
A: > 100 µM (inactive)

Q: What about the GI50 (EKVX) of the same compound?
A: 67 µM (inactive)

Q: And the GI50 (HCC 2998)?
A: > 100 µM (inactive)

Q: And the GI50 (HCT-116)?
A: > 100 µM (inactive)

Q: What about the GI50 (HCT-15) of the same compound?
A: > 100 µM

Q: And the GI50 (HL-60)?
A: > 100 µM (inactive)

Q: And the GI50 (HOP-62)?
A: > 100 µM (inactive)

Q: What about the GI50 (HOP-92) of the same compound?
A: > 100 µM (inactive)

Q: What about the GI50 (Hs-578T) of the same compound?
A: > 100 µM (inactive)

Q: And the GI50 (IGROV-1)?
A: > 100 µM (inactive)

Q: What about the GI50 (K562) of the same compound?
A: > 100 µM (inactive)

Q: What about the GI50 (KM12) of the same compound?
A: > 100 µM (inactive)

Q: And the GI50 (M14)?
A: > 100 µM (inactive)

Q: And the GI50 (MCF7)?
A: > 100 µM (inactive)

Q: What about the GI50 (MDA-MB-231) of the same compound?
A: > 100 µM (inactive)

Q: And the GI50 (MDA-MB-435)?
A: > 100 µM (inactive)

Q: What about the GI50 (MDA-N) of the same compound?
A: > 100 µM (inactive)

Q: And the GI50 (MOLT-4)?
A: > 100 µM (inactive)

Q: And the GI50 (Malme-3M)?
A: > 100 µM (inactive)

Q: And the GI50 (NCI-H226)?
A: > 100 µM (inactive)

Q: And the GI50 (NCI-H23)?
A: > 100 µM (inactive)

Q: And the GI50 (NCI-H460)?
A: > 100 µM (inactive)

Q: And the GI50 (NCI-H522)?
A: > 100 µM (inactive)

Q: What about the GI50 (NCI/ADR-RES) of the same compound?
A: > 100 µM (inactive)

Q: What about the GI50 (OVCAR-3) of the same compound?
A: > 100 µM (inactive)

Q: What about the GI50 (OVCAR-4) of the same compound?
A: > 100 µM (inactive)

Q: And the GI50 (OVCAR-5)?
A: > 100 µM (inactive)

Q: And the GI50 (OVCAR-8)?
A: > 100 µM (inactive)

Q: What about the GI50 (PC-3) of the same compound?
A: > 100 µM (inactive)

Q: And the GI50 (RPMI-8226)?
A: < 0.01 µM (active)

Q: What about the GI50 (RXF 393) of the same compound?
A: > 100 µM (inactive)

Q: What about the GI50 (SF-268) of the same compound?
A: > 100 µM (inactive)

Q: And the GI50 (SF-295)?
A: > 100 µM (inactive)

Q: And the GI50 (SF-539)?
A: > 100 µM (inactive)

Q: And the GI50 (SK-MEL-28)?
A: > 100 µM (inactive)

Q: What about the GI50 (SK-MEL-2) of the same compound?
A: > 100 µM (inactive)

Q: And the GI50 (SK-MEL-5)?
A: > 100 µM (inactive)

Q: What about the GI50 (SK-OV-3) of the same compound?
A: > 100 µM (inactive)

Q: What about the GI50 (SN12C) of the same compound?
A: > 100 µM (inactive)

Q: And the GI50 (SNB-19)?
A: > 100 µM (inactive)

Q: What about the GI50 (SNB-75) of the same compound?
A: > 100 µM (inactive)

Q: What about the GI50 (SR) of the same compound?
A: > 100 µM (inactive)

Q: And the GI50 (SW-620)?
A: > 100 µM (inactive)

Q: And the GI50 (T47D)?
A: > 100 µM (inactive)

Q: What about the GI50 (TK-10) of the same compound?
A: > 100 µM (inactive)

Q: What about the GI50 (U-251) of the same compound?
A: > 100 µM (inactive)

Q: And the GI50 (UACC-257)?
A: > 100 µM (inactive)

Q: And the GI50 (UACC-62)?
A: > 100 µM (inactive)

Q: What about the GI50 (UO-31) of the same compound?
A: > 100 µM (inactive)

Q: What does the source list for `Cc1nc(C)c(N2CCN(C(=O)NC(CCC(=O)O)C(=O)O)CC2)c(O)n1` (centres undefined)?
A: GI50 (786-0): > 100 µM (inactive); GI50 (A498): > 100 µM (inactive); GI50 (A549): > 100 µM (inactive); GI50 (ACHN): > 100 µM (inactive); GI50 (BT-549): > 100 µM (inactive); GI50 (CAKI-1): > 100 µM (inactive); GI50 (CCRF-CEM): > 100 µM (inactive); GI50 (COLO 205): > 100 µM (inactive); GI50 (DU-145): > 100 µM (inactive); GI50 (EKVX): > 100 µM (inactive); GI50 (HCC 2998): > 100 µM (inactive); GI50 (HCT-116): > 100 µM (inactive); GI50 (HCT-15): > 100 µM; GI50 (HL-60): > 100 µM (inactive); GI50 (HOP-62): > 100 µM (inactive); GI50 (HOP-92): > 100 µM (inactive); GI50 (HT-29): > 100 µM (inactive); GI50 (Hs-578T): > 100 µM (inactive); GI50 (IGROV-1): > 100 µM (inactive); GI50 (K562): > 100 µM (inactive); GI50 (KM12): > 100 µM (inactive); GI50 (LOX IMVI): > 100 µM (inactive); GI50 (M14): > 100 µM (inactive); GI50 (MCF7): > 100 µM (inactive); GI50 (MDA-MB-231): > 100 µM (inactive); GI50 (MDA-MB-435): > 100 µM (inactive); GI50 (MDA-N): > 100 µM (inactive); GI50 (MOLT-4): > 100 µM (inactive); GI50 (Malme-3M): > 100 µM (inactive); GI50 (NCI-H226): > 100 µM (inactive); GI50 (NCI-H23): > 100 µM (inactive); GI50 (NCI-H460): > 100 µM (inactive); GI50 (NCI-H522): > 100 µM (inactive); GI50 (NCI/ADR-RES): > 100 µM (inactive); GI50 (OVCAR-3): > 100 µM (inactive); GI50 (OVCAR-4): > 100 µM (inactive); GI50 (OVCAR-5): > 100 µM (inactive); GI50 (OVCAR-8): > 100 µM (inactive); GI50 (PC-3): > 100 µM (inactive); GI50 (RPMI-8226): > 100 µM (inactive); GI50 (RXF 393): > 100 µM (inactive); GI50 (SF-268): > 100 µM (inactive); GI50 (SF-295): > 100 µM (inactive); GI50 (SF-539): > 100 µM (inactive); GI50 (SK-MEL-28): > 100 µM (inactive); GI50 (SK-OV-3): > 100 µM (inactive); GI50 (SN12C): > 100 µM (inactive); GI50 (SNB-19): > 100 µM (inactive); GI50 (SNB-75): < 0.01 µM (active); GI50 (SR): > 100 µM (inactive); GI50 (SW-620): > 100 µM (inactive); GI50 (T47D): > 100 µM (inactive); GI50 (TK-10): > 100 µM (inactive); GI50 (U-251): > 100 µM (inactive); GI50 (UACC-257): > 100 µM (inactive); GI50 (UACC-62): > 100 µM (inactive); GI50 (UO-31): > 100 µM (inactive)
